Our source for the IC50 values is patent US11965039B2, “Compstatin analogues and their medical uses” (priority 2018, dated 2024).

pIC50: −log10 of the molar value. Starred links: 1 amine or outer side, 2 acyl side, 3 side chain; linkers in the order of their positions; H or OH if unused. Positions of bridges follow the written chain, without caps; N, C: chain ends. Non-standard residues stand in square brackets, D forms with d. Residues, ends and D or L forms follow the SMILES beside them. Groups on a side chain read outwards from the residue. *: point of attachment. Trp(1-Me) = Cn1cc(C[C@H](N)C(=O)O)c2ccccc21; C18 diacid = O=C(O)CCCCCCCCCCCCCCCCC(=O)*; γGlu = O=C(O)[C@H](CCC(=O)[*:2])N[*:1]; NMeI = CC[C@H](C)[C@H](NC)C(=O)O; Nva = CCC[C@H](N)C(=O)O; AEEA = NCCOCCOCC(=O)O; Sar = CNCC(=O)O

The test system of one assay is classical complement pathway. As to the kind of experiment: In vitro haemolysis assay (inhibition of classical complement pathway). In kind it is cell-based, human. To be noted: Table 5, different residues at position 3 of Ac-IC(1)XWQDWGEHRC(1)T-NH2; read-out: IC50, CP hemolysis. Summed up:
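Compound dilutions preincubated 15 min at room temperature with diluted human serum (titrated per batch for 70-90% maximal haemolysis), then antibody-sensitized sheep RBC (10^7/well) added for 30 min at 37 °C in Tris/casein buffer, pH 7.4. Stopped with EDTA; haemolysis read at 405 nm; IC50 by 4PL fit.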
For orientation: pIC50 means the IC50 on a negative log10 scale, so that one unit is a factor of ten. As to `CCC[C@@H]1NC(=O)[C@@H](NC(=O)[C@@H](NC(C)=O)[C@@H](C)CC)CSSC[C@@H](C(=O)N[C@H](C(N)=O)[C@@H](C)O)NC(=O)[C@H](CCCNC(=N)N)NC(=O)[C@H](Cc2c[nH]cn2)NC(=O)[C@H](CCC(=O)O)NC(=O)CNC(=O)[C@H](Cc2c[nH]c3ccccc23)NC(=O)[C@H](CC(=O)O)NC(=O)[C@H](CCC(N)=O)NC(=O)[C@H](Cc2c[nH]c3ccccc23)NC1=O` [Norvaline, Ac-IC(1)XWQDWGEHRC(1)T-NH2, reference compound] (Ac-IC[Nva]WQDWGEHRCT-NH2; disulfide 2-12), the pIC50 was below 6.00.

Still in this assay, the particulars now being: human serum, sensitized sheep red blood cells; Table 3, given as upper bounds; read-out: IC50, inhibition of hemolysis.
Consider `CC[C@H](C)[C@H](NC(=O)[C@H](N)Cc1ccc(O)cc1)C(=O)N[C@H]1CSSC[C@@H](C(=O)N(C)[C@H](C(N)=O)[C@@H](C)CC)NC(=O)[C@H](CCCNC(=N)N)NC(=O)[C@H](Cc2c[nH]cn2)NC(=O)[C@H](C)NC(=O)CN(C)C(=O)[C@H](Cc2c[nH]c3ccccc23)NC(=O)[C@H](CC(=O)O)NC(=O)[C@H](CCC(N)=O)NC(=O)[C@H](Cc2cn(C)c3ccccc23)NC(=O)[C@H]([C@@H](C)CC)NC1=O` [Compound 48, H-{d}YIC(1)I[1-Me-Trp]QDW[Sar]AHRC(1)[N-Me-Ile]-NH2] (H-[dY]ICI[Trp(1-Me)]QDW[Sar]AHRC[NMeI]-NH2; disulfide 3-13), for which the pIC50 is above 7.00.

For `CC[C@H](C)[C@@H]1NC(=O)[C@@H](NC(=O)[C@H](Cc2ccccc2)NC(=O)[C@H](CCC(=O)O)NC(=O)[C@H](CO)NC(C)=O)CSSC[C@@H](C(=O)N(C)CC(=O)N[C@@H](CCC(=O)O)C(=O)NCC(=O)N[C@@H](C)C(=O)N[C@@H](CCCCNC(=O)COCCOCCNC(=O)CC[C@H](NC(=O)COCCOCCNC(=O)CNC(=O)CC[C@H](NC(=O)CCCCCCCCCCCCCCCCC(=O)O)C(=O)O)C(=O)O)C(N)=O)NC(=O)[C@H](CCCNC(=N)N)NC(=O)[C@H](Cc2c[nH]cn2)NC(=O)[C@H](CCC(=O)O)NC(=O)CNC(=O)[C@H](Cc2c[nH]c3ccccc23)NC(=O)[C@H](CC(=O)O)NC(=O)[C@H](CCC(N)=O)NC(=O)[C@H](Cc2cn(C)c3ccccc23)NC1=O` [Compound 119] (Ac-SEFCI[Trp(1-Me)]QDWGEHRC[Sar]EGAK([AEEA-γGlu-AEEA-Gly-γGlu-C18 diacid])-NH2; disulfide 4-14), the negative-log IC50 (pIC50) was above 7.00. Take `CC[C@H](C)[C@H](NC(=O)[C@H](C)NC(=O)[C@H](CO)NC(=O)[C@H](CO)NC(=O)[C@H](CCC(=O)O)NC(C)=O)C(=O)N[C@H]1CSSC[C@@H](C(=O)N[C@H](C(N)=O)[C@@H](C)O)NC(=O)[C@H](CCCNC(=N)N)NC(=O)[C@H](Cc2c[nH]cn2)NC(=O)[C@H](C)NC(=O)CNC(=O)[C@H](Cc2c[nH]c3ccccc23)NC(=O)[C@H](CC(=O)O)NC(=O)[C@H](CCC(N)=O)NC(=O)[C@H](Cc2c[nH]c3ccccc23)NC(=O)[C@H]([C@@H](C)CC)NC1=O` [Compound 46] (Ac-ESSAICIWQDWGAHRCT-NH2; disulfide 6-16): the negative logarithm of the IC50 (pIC50) is above 7.00. The same measure, in the same setting: next, `CC[C@H](C)[C@@H]1NC(=O)[C@@H](NC(=O)CN(C)C(=O)[C@H](CCC(=O)O)NC(=O)[C@H](CO)NC(C)=O)CSSC[C@@H](C(=O)N[C@H](C(=O)N[C@@H](CCC(=O)O)C(=O)N[C@@H](C)C(N)=O)[C@@H](C)O)NC(=O)[C@H](CCCNC(=N)N)NC(=O)[C@H](Cc2c[nH]cn2)NC(=O)[C@H](CCC(=O)O)NC(=O)CN(C)C(=O)[C@H](Cc2c[nH]c3ccccc23)NC(=O)[C@H](CCC(=O)O)NC(=O)[C@H](CCC(N)=O)NC(=O)[C@H](Cc2cn(C)c3ccccc23)NC1=O` [Compound 89, Ac-SE[Sar]C(1)I[1-Me-Trp]QEW[Sar]EHRC(1)TEA-NH2] (Ac-SE[Sar]CI[Trp(1-Me)]QEW[Sar]EHRCTEA-NH2; disulfide 4-14): above 7.00. The same measure, in the same setting: next, `CC[C@H](C)[C@@H]1NC(=O)[C@@H](NC(=O)[C@@H](NC(=O)[C@H](CCCCN)NC(=O)[C@H](CCC(=O)O)NC(=O)[C@H](CCCCN)NC(C)=O)[C@@H](C)CC)CSSC[C@@H](C(=O)N[C@H](C(=O)N[C@@H](CCC(=O)O)C(=O)N[C@@H](CCCCN)C(=O)N[C@@H](CCC(=O)O)C(N)=O)[C@@H](C)O)NC(=O)[C@H](CCCNC(=N)N)NC(=O)[C@H](Cc2c[nH]cn2)NC(=O)[C@H](CCC(=O)O)NC(=O)CNC(=O)[C@H](Cc2c[nH]c3ccccc23)NC(=O)[C@H](CC(=O)O)NC(=O)[C@H](CCC(N)=O)NC(=O)[C@H](Cc2c[nH]c3ccccc23)NC1=O` [Compound 37] (Ac-KEKICIWQDWGEHRCTEKE-NH2; disulfide 5-15): above 6.60; `CC[C@H](C)[C@@H]1NC(=O)[C@@H](NC(=O)[C@H](Cc2ccccc2)NC(=O)[C@H](CCC(=O)O)NC(=O)[C@H](CO)NC(C)=O)CSSC[C@@H](C(=O)N[C@H](C(=O)N[C@@H](CCC(=O)O)C(=O)NCC(=O)N[C@@H](CCC(=O)O)C(=O)NCCOCCOCC(=O)NCCOCCOCC(=O)N[C@@H](CCCCNC(=O)CC[C@H](NC(=O)CNC(=O)CC[C@H](NC(=O)CCCCCCCCCCCCCCCCC(=O)O)C(=O)O)C(=O)O)C(N)=O)[C@@H](C)O)NC(=O)[C@H](CCCNC(=N)N)NC(=O)[C@H](Cc2c[nH]cn2)NC(=O)[C@H](CCC(=O)O)NC(=O)CNC(=O)[C@H](Cc2c[nH]c3ccccc23)NC(=O)[C@H](CC(=O)O)NC(=O)[C@H](CCC(N)=O)NC(=O)[C@H](Cc2cn(C)c3ccccc23)NC1=O` [Compound 126] (Ac-SEFCI[Trp(1-Me)]QDWGEHRCTEGE[AEEA][AEEA]K([γGlu-Gly-γGlu-C18 diacid])-NH2; disulfide 4-14): above 7.00; `CC[C@H](C)[C@H](NC(C)=O)C(=O)N[C@H]1CSSC[C@@H](C(=O)N(C)CC(N)=O)NC(=O)[C@H](CCCNC(=N)N)NC(=O)[C@H](Cc2c[nH]cn2)NC(=O)[C@H](CCC(=O)O)NC(=O)CNC(=O)[C@H](Cc2c[nH]c3ccccc23)NC(=O)[C@H](CC(=O)O)NC(=O)[C@H](CCC(N)=O)NC(=O)[C@H](Cc2c[nH]c3ccccc23)NC(=O)[C@H]([C@@H](C)CC)NC1=O` [Compound 13] (Ac-ICIWQDWGEHRC[Sar]-NH2; disulfide 2-12): above 7.00. As for `CC[C@H](C)[C@@H]1NC(=O)[C@@H](NC(=O)[C@H](Cc2ccccc2)NC(=O)[C@H](CCC(=O)O)NC(=O)[C@H](CO)NC(C)=O)CSSC[C@@H](C(=O)N(C)CC(=O)N[C@@H](CCC(=O)O)C(=O)NCC(=O)N[C@@H](CCC(=O)O)C(=O)N[C@@H](CO)C(=O)N[C@@H](CCC(=O)O)C(=O)N[C@@H](CO)C(=O)N[C@@H](CCCCNC(=O)CC[C@H](NC(=O)CNC(=O)CC[C@H](NC(=O)CCCCCCCCCCCCCCCCC(=O)O)C(=O)O)C(=O)O)C(N)=O)NC(=O)[C@H](CCCNC(=N)N)NC(=O)[C@H](Cc2c[nH]cn2)NC(=O)[C@H](CCC(=O)O)NC(=O)CNC(=O)[C@H](Cc2c[nH]c3ccccc23)NC(=O)[C@H](CC(=O)O)NC(=O)[C@H](CCC(N)=O)NC(=O)[C@H](Cc2cn(C)c3ccccc23)NC1=O` [Compound 139] (Ac-SEFCI[Trp(1-Me)]QDWGEHRC[Sar]EGESESK([γGlu-Gly-γGlu-C18 diacid])-NH2; disulfide 4-14), the negative-log IC50 (pIC50) was above 7.00. On the same count and under the same terms, as for `CC[C@H](C)[C@H](NC(C)=O)C(=O)N[C@H]1CSSC[C@@H](C(=O)N[C@H](C(N)=O)[C@@H](C)O)NC(=O)[C@H](CCCNC(=N)N)NC(=O)[C@H](Cc2c[nH]cn2)NC(=O)[C@H](CCCNC(=N)N)NC(=O)CNC(=O)[C@H](Cc2c[nH]c3ccccc23)NC(=O)[C@H](CC(=O)O)NC(=O)[C@H](CCC(N)=O)NC(=O)[C@H](Cc2c[nH]c3ccccc23)NC(=O)[C@H]([C@@H](C)CC)NC1=O` [Compound 18] (Ac-ICIWQDWGRHRCT-NH2; disulfide 2-12), the figure is above 7.00.
